Assays:
[1] = molecular target: Small ribosomal subunit protein uS15 (Homo sapiens) (UniProt P62277); note: assay method not described here
[2] = molecular target: EKC/KEOPS complex subunit TP53RK (Homo sapiens) (UniProt Q96S44); note: assay method not described here
[3] = molecular target: Serine/threonine-protein kinase mTOR (Homo sapiens) (UniProt P42345); note: assay method not described here
[4] = molecular target: Mitochondrial carrier homolog 2 (Homo sapiens) (UniProt Q9Y6C9); note: assay method not described here
[5] = molecular target: CYFIP-related Rac1 interactor B (Homo sapiens) (UniProt Q9NUQ9); note: assay method not described here
[6] = molecular target: Putative RNA-binding protein Luc7-like 2 (Homo sapiens) (UniProt Q9Y383); note: assay method not described here
[7] = molecular target: RAC-gamma serine/threonine-protein kinase (Homo sapiens) (UniProt Q9Y243); note: assay method not described here
[8] = molecular target: Cell division cycle 5-like protein (Homo sapiens) (UniProt Q99459); note: assay method not described here
[9] = molecular target: 26S proteasome regulatory subunit 7 (Homo sapiens) (UniProt P35998); note: assay method not described here
[10] = molecular target: Protein-tyrosine kinase 6 (Homo sapiens) (UniProt Q13882); note: assay method not described here
[11] = molecular target: Annexin A6 (Homo sapiens) (UniProt P08133); note: assay method not described here
[12] = molecular target: ATP-dependent RNA helicase DDX3X (Homo sapiens) (UniProt O00571); note: assay method not described here
[13] = molecular target: Aurora kinase B (Homo sapiens) (UniProt Q96GD4); note: assay method not described here
[14] = molecular target: Ras association domain-containing protein 5 (Homo sapiens) (UniProt Q8WWW0); note: assay method not described here
[15] = molecular target: Eukaryotic initiation factor 4A-I (Homo sapiens) (UniProt P60842); note: assay method not described here
[16] = molecular target: NADH-ubiquinone oxidoreductase 75 kDa subunit, mitochondrial (Homo sapiens) (UniProt P28331); note: assay method not described here
[17] = molecular target: Mitotic checkpoint protein BUB3 (Homo sapiens) (UniProt O43684); note: assay method not described here
[18] = molecular target: Membrane-associated tyrosine- and threonine-specific cdc2-inhibitory kinase (Homo sapiens) (UniProt Q99640); note: assay method not described here
[19] = molecular target: Large ribosomal subunit protein uL3 (Homo sapiens) (UniProt P39023); note: assay method not described here
[20] = molecular target: Proteasome subunit alpha type-4 (Homo sapiens) (UniProt P25789); note: assay method not described here
[21] = molecular target: Large ribosomal subunit protein uL5 (Homo sapiens) (UniProt P62913); note: assay method not described here
Ephrin type-B receptor 3 = Ephrin type-B receptor 3 (Homo sapiens, UniProt P54753); assay: Inhibition of Nano Luc-fused full length C-terminal EPHB3 (unknown origin) expressed in HEK293T cells using NanoGlo as substrate incubated for 2 hrs in presence of tracer by NanoBRET assay; assay type: cell-based
[22] = molecular target: ATP-dependent RNA helicase DDX24 (Homo sapiens) (UniProt Q9GZR7); note: assay method not described here
[23] = molecular target: Extended synaptotagmin-1 (Homo sapiens) (UniProt Q9BSJ8); note: assay method not described here
[24] = molecular target: Peroxiredoxin-6 (Homo sapiens) (UniProt P30041); note: assay method not described here
[25] = molecular target: Large ribosomal subunit protein eL36 (Homo sapiens) (UniProt Q9Y3U8); note: assay method not described here
[26] = molecular target: Phosphatidylinositol 3,4,5-trisphosphate 5-phosphatase 2 (Homo sapiens) (UniProt O15357); note: assay method not described here
[27] = molecular target: Heterogeneous nuclear ribonucleoprotein U (Homo sapiens) (UniProt Q00839); note: assay method not described here
[28] = molecular target: Arginine--tRNA ligase, cytoplasmic (Homo sapiens) (UniProt P54136); note: assay method not described here
[29] = molecular target: Ubiquitin-conjugating enzyme E2 L3 (Homo sapiens) (UniProt P68036); note: assay method not described here
[30] = molecular target: Large ribosomal subunit protein eL20 (Homo sapiens) (UniProt Q02543); note: assay method not described here
[31] = molecular target: PCI domain-containing protein 2 (Homo sapiens) (UniProt Q5JVF3); note: assay method not described here
[32] = molecular target: Dual specificity mitogen-activated protein kinase kinase 5 (Homo sapiens) (UniProt Q13163); note: assay method not described here
[33] = molecular target: Leucine--tRNA ligase, cytoplasmic (Homo sapiens) (UniProt Q9P2J5); note: assay method not described here
[34] = molecular target: POTE ankyrin domain family member E (Homo sapiens) (UniProt Q6S8J3); note: assay method not described here
[35] = molecular target: Stomatin-like protein 2, mitochondrial (Homo sapiens) (UniProt Q9UJZ1); note: assay method not described here
[36] = molecular target: Peroxiredoxin-1 (Homo sapiens) (UniProt Q06830); note: assay method not described here
Myosin-9 (Homo sapiens) = Myosin-9 (Homo sapiens) (UniProt P35579); note: assay method not described here
[37] = molecular target: Importin-9 (Homo sapiens) (UniProt Q96P70); note: assay method not described here
[38] = molecular target: Uncharacterized protein FLJ45252 (Homo sapiens) (UniProt Q6ZSR9); note: assay method not described here
[39] = molecular target: Integrin beta-4 (Homo sapiens) (UniProt P16144); note: assay method not described here
[40] = molecular target: Breakpoint cluster region protein (Homo sapiens) (UniProt P11274); note: assay method not described here
[41] = molecular target: Single-stranded DNA-binding protein, mitochondrial (Homo sapiens) (UniProt Q04837); note: assay method not described here
[42] = molecular target: Serine/threonine-protein kinase TBK1 (Homo sapiens) (UniProt Q9UHD2); note: assay method not described here
Calnexin (Homo sapiens) = Calnexin (Homo sapiens) (UniProt P27824); note: assay method not described here

Sequence of Eukaryotic initiation factor 4A-I (Homo sapiens) (P60842 whole entry): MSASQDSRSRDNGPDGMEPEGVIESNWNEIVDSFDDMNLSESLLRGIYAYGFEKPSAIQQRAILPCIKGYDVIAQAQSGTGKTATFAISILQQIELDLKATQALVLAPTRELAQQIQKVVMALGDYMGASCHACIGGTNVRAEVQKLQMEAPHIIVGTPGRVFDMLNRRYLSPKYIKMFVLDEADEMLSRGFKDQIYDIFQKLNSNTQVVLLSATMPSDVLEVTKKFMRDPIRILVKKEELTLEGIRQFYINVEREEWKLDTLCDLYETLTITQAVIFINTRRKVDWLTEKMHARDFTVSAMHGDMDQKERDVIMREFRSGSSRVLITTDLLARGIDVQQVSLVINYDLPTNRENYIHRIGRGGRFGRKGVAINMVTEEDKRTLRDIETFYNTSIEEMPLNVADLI
Sequence of POTE ankyrin domain family member E (Homo sapiens) (Q6S8J3 whole entry, the tested form may be a part): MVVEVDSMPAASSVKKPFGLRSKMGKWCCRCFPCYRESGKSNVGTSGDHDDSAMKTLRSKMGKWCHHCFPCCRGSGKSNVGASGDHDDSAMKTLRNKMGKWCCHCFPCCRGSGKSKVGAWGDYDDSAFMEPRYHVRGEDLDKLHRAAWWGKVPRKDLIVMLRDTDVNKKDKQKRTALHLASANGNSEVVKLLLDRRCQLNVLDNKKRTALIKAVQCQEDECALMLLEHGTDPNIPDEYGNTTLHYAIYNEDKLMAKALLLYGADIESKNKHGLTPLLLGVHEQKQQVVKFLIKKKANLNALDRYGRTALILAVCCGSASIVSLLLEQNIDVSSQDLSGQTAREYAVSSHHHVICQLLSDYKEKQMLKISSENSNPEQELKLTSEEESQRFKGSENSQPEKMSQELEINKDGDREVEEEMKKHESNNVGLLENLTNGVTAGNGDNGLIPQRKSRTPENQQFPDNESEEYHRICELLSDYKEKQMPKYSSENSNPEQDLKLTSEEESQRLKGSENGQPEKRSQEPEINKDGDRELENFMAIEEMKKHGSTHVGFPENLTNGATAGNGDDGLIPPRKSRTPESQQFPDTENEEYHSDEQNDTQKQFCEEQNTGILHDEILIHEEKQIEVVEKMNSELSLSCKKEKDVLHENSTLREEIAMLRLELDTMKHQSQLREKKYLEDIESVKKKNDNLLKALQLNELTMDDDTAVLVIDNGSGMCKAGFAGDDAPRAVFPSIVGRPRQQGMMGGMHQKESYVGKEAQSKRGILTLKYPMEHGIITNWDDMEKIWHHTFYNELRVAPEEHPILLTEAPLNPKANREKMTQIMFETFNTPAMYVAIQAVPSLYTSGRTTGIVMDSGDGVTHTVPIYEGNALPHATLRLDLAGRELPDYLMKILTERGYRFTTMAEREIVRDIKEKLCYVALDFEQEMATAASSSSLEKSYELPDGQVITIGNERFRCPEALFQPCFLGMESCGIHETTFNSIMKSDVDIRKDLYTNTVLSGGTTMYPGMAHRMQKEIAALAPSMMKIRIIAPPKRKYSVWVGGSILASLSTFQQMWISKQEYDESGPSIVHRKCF
Sequence of Extended synaptotagmin-1 (Homo sapiens) (Q9BSJ8 whole entry): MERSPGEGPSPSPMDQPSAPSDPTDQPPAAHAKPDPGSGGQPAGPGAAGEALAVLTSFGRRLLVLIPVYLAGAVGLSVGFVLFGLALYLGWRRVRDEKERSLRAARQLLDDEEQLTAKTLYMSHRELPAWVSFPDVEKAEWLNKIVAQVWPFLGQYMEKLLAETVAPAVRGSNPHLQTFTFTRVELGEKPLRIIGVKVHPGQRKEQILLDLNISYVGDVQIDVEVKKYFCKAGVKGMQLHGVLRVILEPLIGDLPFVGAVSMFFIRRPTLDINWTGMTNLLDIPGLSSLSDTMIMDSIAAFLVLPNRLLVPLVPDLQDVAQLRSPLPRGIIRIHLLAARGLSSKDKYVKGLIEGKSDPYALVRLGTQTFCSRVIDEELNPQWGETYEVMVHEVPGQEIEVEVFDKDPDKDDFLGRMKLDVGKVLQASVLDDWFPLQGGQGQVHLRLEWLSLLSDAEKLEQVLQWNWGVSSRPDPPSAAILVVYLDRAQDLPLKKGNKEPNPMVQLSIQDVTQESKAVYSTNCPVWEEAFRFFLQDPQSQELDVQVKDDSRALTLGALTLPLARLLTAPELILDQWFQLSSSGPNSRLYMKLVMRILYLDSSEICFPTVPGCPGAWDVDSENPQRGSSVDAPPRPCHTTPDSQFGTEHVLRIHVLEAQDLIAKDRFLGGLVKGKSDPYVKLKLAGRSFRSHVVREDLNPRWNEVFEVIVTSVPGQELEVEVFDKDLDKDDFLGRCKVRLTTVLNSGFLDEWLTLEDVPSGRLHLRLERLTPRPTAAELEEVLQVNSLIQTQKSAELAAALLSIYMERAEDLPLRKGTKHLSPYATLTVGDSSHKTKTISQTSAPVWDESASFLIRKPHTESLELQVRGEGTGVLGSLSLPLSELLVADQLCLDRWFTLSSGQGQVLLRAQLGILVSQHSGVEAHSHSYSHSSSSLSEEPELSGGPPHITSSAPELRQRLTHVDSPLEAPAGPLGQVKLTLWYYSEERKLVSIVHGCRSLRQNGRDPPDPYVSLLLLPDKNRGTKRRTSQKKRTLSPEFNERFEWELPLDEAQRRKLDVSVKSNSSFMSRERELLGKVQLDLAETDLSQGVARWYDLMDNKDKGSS
Sequence of Cell division cycle 5-like protein (Homo sapiens) (Q99459 whole entry): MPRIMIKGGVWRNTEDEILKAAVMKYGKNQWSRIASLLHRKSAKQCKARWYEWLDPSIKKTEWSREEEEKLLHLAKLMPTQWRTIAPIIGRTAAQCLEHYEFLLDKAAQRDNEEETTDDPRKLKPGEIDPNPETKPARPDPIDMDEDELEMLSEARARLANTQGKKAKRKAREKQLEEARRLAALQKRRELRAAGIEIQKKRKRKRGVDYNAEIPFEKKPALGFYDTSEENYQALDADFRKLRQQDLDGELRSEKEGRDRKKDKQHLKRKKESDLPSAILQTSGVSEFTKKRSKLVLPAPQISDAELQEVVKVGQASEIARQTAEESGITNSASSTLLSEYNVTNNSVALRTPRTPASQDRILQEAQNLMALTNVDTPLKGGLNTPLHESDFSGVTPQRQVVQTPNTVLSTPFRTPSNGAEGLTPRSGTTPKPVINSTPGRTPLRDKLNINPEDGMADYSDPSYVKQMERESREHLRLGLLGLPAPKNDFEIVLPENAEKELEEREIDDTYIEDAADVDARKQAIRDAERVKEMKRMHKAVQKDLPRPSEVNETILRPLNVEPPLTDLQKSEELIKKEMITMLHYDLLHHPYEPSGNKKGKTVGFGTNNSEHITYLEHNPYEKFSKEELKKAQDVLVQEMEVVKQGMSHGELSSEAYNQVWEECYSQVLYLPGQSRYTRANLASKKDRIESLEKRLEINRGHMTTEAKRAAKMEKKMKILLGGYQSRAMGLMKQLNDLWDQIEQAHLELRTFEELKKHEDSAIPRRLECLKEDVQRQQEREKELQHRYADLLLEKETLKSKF
Sequence of NADH-ubiquinone oxidoreductase 75 kDa subunit, mitochondrial (Homo sapiens) (P28331 whole entry): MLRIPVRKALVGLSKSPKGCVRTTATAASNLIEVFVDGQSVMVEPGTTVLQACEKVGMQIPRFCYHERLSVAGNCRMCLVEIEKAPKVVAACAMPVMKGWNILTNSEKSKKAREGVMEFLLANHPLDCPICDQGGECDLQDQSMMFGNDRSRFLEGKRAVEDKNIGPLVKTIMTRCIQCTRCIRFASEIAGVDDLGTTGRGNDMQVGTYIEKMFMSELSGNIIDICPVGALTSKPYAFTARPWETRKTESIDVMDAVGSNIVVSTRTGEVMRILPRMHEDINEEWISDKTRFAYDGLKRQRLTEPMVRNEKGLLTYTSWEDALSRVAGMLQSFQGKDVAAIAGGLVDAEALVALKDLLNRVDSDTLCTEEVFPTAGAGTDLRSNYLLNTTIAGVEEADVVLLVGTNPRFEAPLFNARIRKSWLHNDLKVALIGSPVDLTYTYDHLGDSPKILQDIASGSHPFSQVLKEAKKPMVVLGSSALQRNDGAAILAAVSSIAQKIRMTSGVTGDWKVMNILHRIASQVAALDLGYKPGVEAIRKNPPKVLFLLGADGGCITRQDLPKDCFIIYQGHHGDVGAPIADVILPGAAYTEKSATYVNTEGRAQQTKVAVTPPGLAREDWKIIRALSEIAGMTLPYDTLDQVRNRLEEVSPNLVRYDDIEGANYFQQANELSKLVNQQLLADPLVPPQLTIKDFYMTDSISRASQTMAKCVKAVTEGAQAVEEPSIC
Sequence of Heterogeneous nuclear ribonucleoprotein U (Homo sapiens) (Q00839 whole entry): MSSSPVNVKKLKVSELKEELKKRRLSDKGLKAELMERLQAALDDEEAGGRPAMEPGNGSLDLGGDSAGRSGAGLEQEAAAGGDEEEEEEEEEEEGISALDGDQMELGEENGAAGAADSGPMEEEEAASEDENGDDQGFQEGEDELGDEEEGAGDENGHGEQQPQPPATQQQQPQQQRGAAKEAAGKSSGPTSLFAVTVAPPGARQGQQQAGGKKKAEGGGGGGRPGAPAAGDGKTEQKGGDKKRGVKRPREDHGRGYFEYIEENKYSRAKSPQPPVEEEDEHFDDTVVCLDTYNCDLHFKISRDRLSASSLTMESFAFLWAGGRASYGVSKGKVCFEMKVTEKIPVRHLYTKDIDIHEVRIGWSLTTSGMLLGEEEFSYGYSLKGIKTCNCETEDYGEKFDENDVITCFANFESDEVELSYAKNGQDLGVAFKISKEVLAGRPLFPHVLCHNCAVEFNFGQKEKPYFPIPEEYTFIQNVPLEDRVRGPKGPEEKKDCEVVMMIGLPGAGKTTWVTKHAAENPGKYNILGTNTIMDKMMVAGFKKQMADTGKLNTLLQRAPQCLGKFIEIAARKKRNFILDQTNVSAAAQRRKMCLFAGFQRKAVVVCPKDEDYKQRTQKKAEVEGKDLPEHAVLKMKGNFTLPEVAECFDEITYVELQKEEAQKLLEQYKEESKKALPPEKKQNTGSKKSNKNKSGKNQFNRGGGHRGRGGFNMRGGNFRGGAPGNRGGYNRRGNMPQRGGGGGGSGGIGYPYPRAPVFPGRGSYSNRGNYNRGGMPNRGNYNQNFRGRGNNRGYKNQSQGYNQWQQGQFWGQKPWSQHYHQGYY

Cc1ccc(C(=O)Nc2cccc(C(F)(F)F)c2)cc1Nc1nc(-c2cccnc2)nc2nn(C)cc12
ED50 [1]: 0.00657 µM
ED50 [2]: 0.485 µM
ED50 [3]: 0.443 µM
ED50 [4]: 0.13 µM
ED50 [5]: 43 µM
ED50 [6]: 4.27 µM
ED50 [7]: 3.14 µM
ED50 [8]: 0.0985 µM
ED50 [9]: 232 µM
ED50 [10]: 68.5 µM
ED50 [11]: 0.0326 µM
ED50 [12]: 0.00683 µM
ED50 [13]: 0.128 µM
ED50 [14]: 4.74 µM
ED50 [15]: 58.1 µM
ED50 [16]: 0.959 µM
ED50 [17]: 0.0679 µM
ED50 [18]: 0.0846 µM
ED50 [19]: 10.4 µM
ED50 [20]: 13 µM
ED50 [21]: 1.63 µM
IC50 (Ephrin type-B receptor 3): 0.191 µM
ED50 [22]: 0.1 µM
ED50 [23]: 6850 µM
ED50 [24]: 0.0611 µM
ED50 [25]: 0.0103 µM
ED50 [26]: 1.01 µM
ED50 [27]: 13200 µM
ED50 [28]: 0.443 µM
ED50 [29]: 0.32 µM
ED50 [30]: 3.15 µM
ED50 [31]: 1450 µM
ED50 [32]: 0.00101 µM
ED50 [33]: 0.265 µM
ED50 [34]: 2.45 µM
ED50 [35]: 0.0386 µM
ED50 [36]: 9.72 µM
ED50 (Myosin-9 (Homo sapiens)): 0.0973 µM
ED50 [37]: 0.00375 µM
ED50 [38]: 0.000276 µM
ED50 [39]: 825 µM
ED50 [40]: 0.852 µM
ED50 [41]: 0.0346 µM
ED50 [42]: 3.85 µM
ED50 (Calnexin (Homo sapiens)): 9.63 µM

Cc1ccc(C(=O)Nc2cccc(C(F)(F)F)c2)cc1Nc1nc(-c2cccnc2)nc2c1cnn2C
ED50 [1]: 2.21 µM
ED50 [2]: 3.47 µM
ED50 [3]: 11.6 µM
ED50 [4]: 0.0279 µM
ED50 [5]: 4.85 µM
ED50 [6]: 1.77 µM
ED50 [7]: 0.0059 µM
ED50 [8]: 9.84 µM
ED50 [9]: 84.1 µM
ED50 [10]: 5.95 µM
ED50 [11]: 9 µM
ED50 [12]: 3.01 µM
ED50 [13]: 11.6 µM
ED50 [14]: 6.41 µM
ED50 [15]: 0.0241 µM
ED50 [16]: 0.765 µM
ED50 [17]: 0.00528 µM
ED50 [18]: 0.00995 µM
ED50 [19]: 2.64 µM
ED50 [20]: 0.151 µM
ED50 [21]: 0.0395 µM
IC50 (Ephrin type-B receptor 3): 0.006 µM
ED50 [22]: 2.99 µM
ED50 [23]: 0.00937 µM
ED50 [24]: 66.2 µM
ED50 [25]: 10.5 µM
ED50 [26]: 0.364 µM
ED50 [27]: 0.0195 µM
ED50 [28]: 0.886 µM
ED50 [29]: 5.79 µM
ED50 [30]: 0.0981 µM
ED50 [31]: 1.92 µM
ED50 [32]: 5.94 µM
ED50 [33]: 4.63 µM
ED50 [34]: 11.7 µM
ED50 [35]: 0.0199 µM
ED50 [36]: 0.0459 µM
ED50 (Myosin-9 (Homo sapiens)): 0.756 µM
ED50 [37]: 19.2 µM
ED50 [38]: 0.248 µM
ED50 [39]: 3.51 µM
ED50 [40]: 0.488 µM
ED50 [41]: 0.00621 µM
ED50 [42]: 0.0187 µM
ED50 (Calnexin (Homo sapiens)): 5.64 µM
